# Key:
# [1] = test system: Schistosoma mansoni cercariae; assay: Activity against Schistosoma mansoni cercariae (survival/mobility in water); type: cell-based; conditions: 500 μl/l final concentration of the active compound; PEG300/aquarium water; test period of 120 minutes
# Experimental: Activity Against Schistosoma mansoni cercariae
# [500 μl/l Final Concentration of the Active Compounds]
# Snails (Biomphalaria glabrata) were infected by incubating each of them with 8 miracidia in 10 ml of water overnight. About 6 to 9 weeks after the infection, cercariae were obtained by irradiating the snails, which had been kept in darkness, with light, followed by collection of the swarming cercariae within 2 hours.
# Such an amount of cercariae-containing water (1 or 2 ml, see below) was added to the test batches that each batch contained about 100 to 150 cercariae.
# 5 μl of active compound were mixed thoroughly with 25 μl of PEG300. 9 ml of aquarium water was then added, and the batch was shaken vigorously. After (delayed) addition of 1 ml of cercariae suspension, survival of the cercariae was in each case observed immediately using a stereomagnifier.
# [2] = test system: cercariae of Schistosoma mansoni; conditions: topical agent; Salafsky et al. 1998; cited from earlier work
# [3] = test system: cercariae of Schistosoma mansoni; conditions: topical, monkeys; Bruce et al. 1992; cited from earlier work
# [4] = test system: cercariae of Schistosoma mansoni; conditions: Fripp and Armstrong 1973; cited from earlier work
smiles,measurement,setting,value
CCCCOC(=O)CN(CCCC)C(C)=O,activity of the active compounds against cercariae (classification 0-3),[1],1
"CCN(CC)C(=O)c1cccc(C)c1 [N,N-Diethyl-m-toluamide (DEET), N,N-Diethyl-m-toluamide]",action against cercariae of Schistosoma mansoni,[2],acts against cercariae
O=C(Nc1ccc([N+](=O)[O-])cc1Cl)c1cc(Cl)ccc1O [Niclosamide],action against the penetration of cercariae,[3],acts against the penetration of cercariae
Oc1c(Cl)cc(Cl)c(Cl)c1Cc1c(O)c(Cl)cc(Cl)c1Cl [hexachlorophene],effect on cercariae of Schistosoma mansoni,[4],lethal effect
